Results taken from ChEMBL document CHEMBL1145948 (J Med Chem, 2003).
Activity calls are given as the source filed them. The rule behind the calls is not given here.

Tests used:
Histamine H1 receptor [1] = molecular target: T1, Histamine H1 receptor (Homo sapiens, UniProt P35367)
Histamine H1 receptor [2] = molecular target: T1, Histamine H1 receptor; remark: listed apart in the source
Histamine H1 receptor [3] = molecular target: T1, Histamine H1 receptor; test: Intrinsic activity; Tested up to 10 uM: no effects up to 1 uM
Histamine H1 receptor [4] = molecular target: T1, Histamine H1 receptor; test: Intrinsic activity; Tested up to 10 uM: no effects up to 1 uM
Histamine H1 receptor [5] = molecular target: T1, Histamine H1 receptor; test: Intrinsic activity; Tested up to 100 uM: no effects up to 10 uM
Histamine H1 receptor [6] = molecular target: T1, Histamine H1 receptor; test: Intrinsic activity was determined; Tested up to 100 uM: no effects up to 10 uM

T1 sequence (P35367 whole entry): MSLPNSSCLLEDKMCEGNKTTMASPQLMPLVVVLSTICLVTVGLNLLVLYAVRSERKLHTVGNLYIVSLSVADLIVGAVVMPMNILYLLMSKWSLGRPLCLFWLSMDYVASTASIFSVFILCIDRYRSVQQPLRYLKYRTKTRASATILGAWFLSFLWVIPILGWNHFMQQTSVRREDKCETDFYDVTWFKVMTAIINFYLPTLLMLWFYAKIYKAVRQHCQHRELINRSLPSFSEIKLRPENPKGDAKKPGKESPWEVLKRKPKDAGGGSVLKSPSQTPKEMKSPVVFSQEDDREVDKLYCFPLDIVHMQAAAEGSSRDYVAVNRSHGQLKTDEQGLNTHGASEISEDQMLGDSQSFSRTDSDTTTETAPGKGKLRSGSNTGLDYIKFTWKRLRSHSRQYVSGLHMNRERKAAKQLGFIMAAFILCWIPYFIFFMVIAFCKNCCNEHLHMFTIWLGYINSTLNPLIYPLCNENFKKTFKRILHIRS

| Compound | Alpha (Histamine H1 receptor [1]) | IC50 (Histamine H1 receptor [2]) | other results |
| --- | --- | --- | --- |
| NCCCCCCCCc1c[nH]cn1 | -0.54 | – | – |
| NCCCCCCCCCCCCCCc1cnc[nH]1 | – | 2000 nM | – |
| NCCCCCCCCCCCCCc1c[nH]cn1 | -0.84 | – | – |
| c1ncc(CCCCCCCCN2CCCC2)[nH]1 | – | 631 nM | – |
| NCCc1c[nH]c(-c2ccc(Cl)c(Cl)c2)n1 | 0.5 | – | EC50 (Histamine H1 receptor [2]): 50100 nM |
| NCCCCCCCCCCCc1cnc[nH]1 | – | 251 nM | – |
| NCCCCCCCCCCc1ccccn1 | – | – | Alpha (Histamine H1 receptor [3]): inactive |
| NCCCCCCCCCc1c[nH]cn1 | -0.72 | 2000 nM | – |
| NCCc1cnc(-c2cccc(C(F)(F)F)c2)[nH]1 | – | – | EC50 (Histamine H1 receptor [2]): 1000 nM |
| NCCCCCCCCCc1ccccn1 | -0.92 | 7940 nM | – |
| NCCc1c[nH]c(CCCCC(c2ccccc2)c2ccccc2)n1 | -0.09 | – | – |
| NCCc1c[nH]c(CCCC(c2ccccc2)c2ccccc2)n1 | 0.02 | – | – |
| NCCCCCCCCc1cnc[nH]1 | – | 3160 nM | – |
| NCCc1c[nH]c(-c2cccc(Cl)c2)n1 | 1.28 | – | EC50 (Histamine H1 receptor [2]): 2000 nM |
| NCCCCCCCCCCCCCCc1c[nH]cn1 | -0.9 | – | – |
| c1nc(CCCCCCCCCCN2CCCC2)c[nH]1 | -0.61 | 398 nM | – |
| NCCc1c[nH]c(CCC(c2ccccc2)C2CCCCC2)n1 (stereo not drawn) | – | – | Alpha (Histamine H1 receptor [4]): inactive |
| NCCCCCCCCCCc1c[nH]cn1 | -0.54 | 501 nM | – |
| NCCc1cnc(CCC(c2ccccc2)c2ccccc2)[nH]1 | – | 794 nM | – |
| NCCCCCCCCCCc1ccncc1 | -1 | 2510 nM | – |

| Compound | Alpha (Histamine H1 receptor [1]) | IC50 (Histamine H1 receptor [2]) | other results |
| --- | --- | --- | --- |
| NCCCCCCCCCCCc1c[nH]cn1 | -0.61 | – | – |
| c1nc(CCCCCCCCCCCCN2CCCC2)c[nH]1 | -0.46 | 3980 nM | – |
| NCCc1c[nH]c(-c2cccc(C(F)(F)F)c2)n1 | 0.91 | – | – |
| NCCCCCCCCCCCCc1c[nH]cn1 | -0.62 | 1000 nM | – |
| NCCCCCCCCCCCCCc1cnc[nH]1 | – | 1260 nM | – |
| NCCc1c[nH]c(CCC(c2ccccc2)c2ccc(Br)cc2)n1 (stereo not drawn) | – | – | Alpha (Histamine H1 receptor [4]): inactive |
| Cc1ccc(C(CCc2nc(CCN)c[nH]2)c2ccccc2)cc1 (stereo not drawn) | – | – | Alpha (Histamine H1 receptor [4]): inactive |
| NCCCCCCCCCCCCc1ccccn1 | – | – | Alpha (Histamine H1 receptor [3]): inactive |
| c1ccc(C(CCc2nc(CCN3CCCC3)c[nH]2)c2ccccc2)cc1 | – | – | Alpha (Histamine H1 receptor [5]): inactive |
| NCCCCCCCCCCCCc1cccnc1 | -0.78 | 1260 nM | – |
| NCCc1c[nH]cn1 | 1 | – | – |
| NCCc1c[nH]c(CC(c2ccccc2)c2ccccc2)n1 | – | – | Alpha (Histamine H1 receptor [5]): inactive |
| NCCc1cscn1 | – | – | Alpha (Histamine H1 receptor [6]): inactive |
| NCCCCCCCCCCc1cccnc1 | -0.76 | 2510 nM | – |
| NCCCCCCCCCCCCc1ccncc1 | -0.67 | 398 nM | – |
| NCCc1ccccn1 | 1.11 | 1260 nM | – |
| NCCc1c[nH]c(CCC(c2ccccc2)c2ccccc2)n1 | 0.69 | – | – |
| c1nc(CCCCCCCCN2CCCC2)c[nH]1 | -0.99 | – | – |
| CN(C)CCN(Cc1ccccc1)c1ccccn1 [TRIPELENNAMINE] | -0.84 | 39.8 nM | – |
